Laboratory results taken from patent US20180282310A1, “FORMS AND COMPOSITIONS OF BIARYL INHIBITORS OF BRUTON'S TYROSINE KINASE” (BIOGEN MA INC., priority 2015, published 2018).
Converted amounts (≈) assume the structure as drawn. Blank lines part the entries; values can stand above or below the compound they belong to.

Legend:
Type in all cases: physicochemical
[1] = Physical form stability on storage or drying (XRPD/TGA)
Excerpt: A sample of Compound 2 Type B reference was generated via evaporation of a solution in MeOH/MIBK (v/v, 4:1) at room temperature. […] As the sample was still wet after form transformation, Compound 2 Type B is suspected to be a metastable form at ambient conditions.

[2] = Dynamic vapor sorption (DVS): hygroscopicity and physical stability under humidity
Method: Dynamic Vapor Sorption (DVS) was measured via a SMS (Surface Measurement Systems) DVS Intrinsic.
To evaluate the hygroscopicity and physical stability of Compound 2 Type A under increased humidity, DVS isotherm data was collected at 25° C. with the starting sample pre-dried at 0% RH until a mass change rate lower than 0.002%/min.

[3] = Estimated solubility in solvents at room temperature (stepwise solvent addition); details: for solubility: thermodynamic from solid
Method: Approximately 2 mg solids were added into a 3-mL glass vial. Solvents in Table 39 were then added step wise (100 μL per step) into the vials until the solids were dissolved or a total volume of 2 mL was reached. Results summarized in Table 39 were used to guide the solvent selection in polymorph screening. […] Approximately 2 mg solids were added into a 3-mL glass vial. Solvents in Table 4-6 were then added stepwise (100 μL per step) into the vials until the solids were dissolved or a total volume of 2 mL was reached. Results are summarized in Table 57, which were used to guide the solvent selection in polymorph screening.

Structure (SMILES): Cc1cc(-c2ccnc(Nc3cnn(C)c3)n2)ccc1CNC(=O)N1CC(OC(C)C)C1 [Compound 1 Type E, 3-isopropoxy-N-(2-methyl-4-(2-((1-methyl-1H-pyrazol-4-yl)amino)pyrimidin-4-yl)benzyl)azetidine-1-carboxamide]
Solid form after storage (XRPD) ([1]; ambient conditions for 2 days): conformed to Type B

Structure (SMILES): Cc1cc(-c2ccnc(Nc3cnn(C)c3)n2)ccc1CNC(=O)N1CC(OC(C)C)C1.Cl [Compound 2 Type A]
solubility ([3]; 20 °C, organic solvent or mixture, 1,4-dioxane, room temperature (RT, 20±3° C.)): < 1 mg/mL
solubility ([3]; 20 °C, organic solvent or mixture, 2-MeTHF, room temperature (RT, 20±3° C.)): < 1 mg/mL
solubility ([3]; 20 °C, organic solvent or mixture, ACN, room temperature (RT, 20±3° C.)): < 1 mg/mL
solubility ([3]; 20 °C, organic solvent or mixture, Acetone, room temperature (RT, 20±3° C.)): < 0.9 mg/mL
solubility ([3]; 20 °C, organic solvent or mixture, CHCl3, room temperature (RT, 20±3° C.)): < 1.1 mg/mL
solubility ([3]; 20 °C, organic solvent or mixture, DCM, room temperature (RT, 20±3° C.)): < 1.1 mg/mL
solubility ([3]; 20 °C, organic solvent or mixture, DMAc, room temperature (RT, 20±3° C.)): 22 to 44 mg/mL
solubility ([3]; 20 °C, organic solvent or mixture, DMSO, room temperature (RT, 20±3° C.)): 14 to 21 mg/mL
solubility ([3]; 20 °C, organic solvent or mixture, EtOAc, room temperature (RT, 20±3° C.)): < 1 mg/mL
solubility ([3]; 20 °C, organic solvent or mixture, EtOH, room temperature (RT, 20±3° C.)): 4.4 to 5.5 mg/mL
solubility ([3]; 20 °C, organic solvent or mixture, IPA, room temperature (RT, 20±3° C.)): 1.7 to 1.8 mg/mL
solubility ([3]; 20 °C, organic solvent or mixture, IPAc, room temperature (RT, 20±3° C.)): < 1.2 mg/mL
solubility ([3]; 20 °C, organic solvent or mixture, MIBK, room temperature (RT, 20±3° C.)): < 1 mg/mL
solubility ([3]; 20 °C, organic solvent or mixture, MTBE, room temperature (RT, 20±3° C.)): < 1 mg/mL
solubility ([3]; 20 °C, organic solvent or mixture, MeOH, room temperature (RT, 20±3° C.)): > 34 mg/mL
solubility ([3]; 20 °C, organic solvent or mixture, NMP, room temperature (RT, 20±3° C.)): 14.7 to 22 mg/mL
solubility ([3]; 20 °C, organic solvent or mixture, THF, room temperature (RT, 20±3° C.)): < 0.9 mg/mL
solubility ([3]; 20 °C, organic solvent or mixture, Toluene, room temperature (RT, 20±3° C.)): < 1.1 mg/mL
solubility ([3]; 20 °C, organic solvent or mixture, n-heptane, room temperature (RT, 20±3° C.)): < 0.9 mg/mL
Behaviour in the solubility test (stability of the salt) ([3]; H2O, room temperature, colour change of solids from orange to faint yellow): N/A: disproportionation occurred along with obvious color change of solids from orange to faint yellow.
Form change after the DVS test (XRPD) ([2]; 25° C.): no form change
Hygroscopicity (DVS) ([2]; 25° C.): slightly hygroscopic
Water uptake (DVS) ([2]; 25° C./80% RH, sample pre-dried at 0% RH): 1.0%

Structure (SMILES): Cc1cc(-c2ccnc(Nc3cnn(C)c3)n2)ccc1CNC(=O)N1CC(OC(C)C)C1.Cl [Compound 2 Type B]
Solid form change during air drying (XRPD) ([1]; air drying at ambient conditions): converted into Compound 2 Type A

Now from value to compound:

Form change after the DVS test (XRPD) ([2]; 25° C.): no form change
Hygroscopicity (DVS) ([2]; 25° C.): slightly hygroscopic
Behaviour at low humidity (DVS) ([2]; relative humidity (RH) less than 10%, 25° C.): tends to dehydrate
Physical stability on vacuum drying ([1]; vacuum dried at 80° C. for 15 hrs): physically unstable
Structure (SMILES): Cc1cc(-c2ccnc(Nc3cnn(C)c3)n2)ccc1CNC(=O)N1CC(OC(C)C)C1 [Compound 1 Type B, 3-isopropoxy-N-(2-methyl-4-(2-((1-methyl-1H-pyrazol-4-yl)amino)pyrimidin-4-yl)benzyl)azetidine-1-carboxamide]

solubility ([3]; organic solvent or mixture, 1,4-Dioxane, room temperature): 3.5 to 4.2 mg/mL (≈ 8.04 to 9.64 mM)
solubility ([3]; organic solvent or mixture, 2-MeTHF, room temperature): 2.2 to 2.4 mg/mL (≈ 5.05 to 5.51 mM)
solubility ([3]; organic solvent or mixture, ACN, room temperature): 2.3 to 2.6 mg/mL (≈ 5.28 to 5.97 mM)
solubility ([3]; organic solvent or mixture, Acetic acid, room temperature): > 54 mg/mL
solubility ([3]; organic solvent or mixture, Acetone, room temperature): 4.6 to 5.8 mg/mL (≈ 10.6 to 13.3 mM)
solubility ([3]; organic solvent or mixture, CHCl3, room temperature): 20 to 40 mg/mL (≈ 45.9 to 91.8 mM)
solubility ([3]; organic solvent or mixture, DCM, room temperature): 12 to 24 mg/mL (≈ 27.6 to 55.1 mM)
solubility ([3]; organic solvent or mixture, DMAc, room temperature): > 54 mg/mL
solubility ([3]; organic solvent or mixture, DMSO, room temperature): > 38 mg/mL
solubility ([3]; organic solvent or mixture, EtOAc, room temperature): 1.4 to 1.5 mg/mL (≈ 3.21 to 3.44 mM)
solubility ([3]; organic solvent or mixture, EtOH, room temperature): 4.4 to 5.5 mg/mL (≈ 10.1 to 12.6 mM)
solubility ([3]; organic solvent or mixture, IPA, room temperature): 3 to 3.5 mg/mL (≈ 6.89 to 8.04 mM)
solubility ([3]; organic solvent or mixture, IPAc, room temperature): < 1.5 mg/mL
solubility ([3]; organic solvent or mixture, MIBK, room temperature): < 1.4 mg/mL
solubility ([3]; organic solvent or mixture, MTBE, room temperature): < 1.3 mg/mL
solubility ([3]; organic solvent or mixture, MeOH, room temperature): 12.5 to 25 mg/mL (≈ 28.7 to 57.4 mM)
solubility ([3]; organic solvent or mixture, NMP, room temperature): > 56 mg/mL
solubility ([3]; organic solvent or mixture, THF, room temperature): 6 to 9 mg/mL (≈ 13.8 to 20.7 mM)
solubility ([3]; organic solvent or mixture, Toluene, room temperature): < 0.9 mg/mL
solubility ([3]; organic solvent or mixture, n-Heptane, room temperature): < 1.5 mg/mL
solubility ([3]; water, H2O, room temperature): < 1.1 mg/mL
Structure (SMILES): Cc1cc(-c2ccnc(Nc3cnn(C)c3)n2)ccc1CNC(=O)N1CC(OC(C)C)C1 [Compound 1 Type A, 3-isopropoxy-N-(2-methyl-4-(2-((1-methyl-1H-pyrazol-4-yl)amino)pyrimidin-4-yl)benzyl)azetidine-1-carboxamide]
